Reference: the supplement of paper PMC5908809

Assays:
[1] = tested on: normal NK cells expanded with K562-aAPC; assay: percent inhibition of viability; higher = more inhibition; conditions: 72 h, IL-2 2.5 ng/mL
Description: (§1)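 Drug sensitivity and resistance testing on K562-aAPC-expanded normal NK cells: 5 concentrations (10-fold steps over a 10,000-fold range), 72 h at 37 °C, viability by CellTiter-Glo normalised to DMSO and benzethonium chloride controls; DSS from the fitted curve.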

DERL-7 (IL-2 2.5 ng/mL) [2] = assay: as above; conditions: 72 h
IMC-1 (IL-2 20 ng/mL) [3] = assay: as above; conditions: 72 h
KAI3 (IL-2 2.5 ng/mL) [4] = assay: as above; conditions: 72 h
KHYG-1 (IL-2 2.5 ng/mL) [5] = assay: as above; conditions: 72 h
NK-92 (IL-2 2.5 ng/mL) [6] = assay: as above; conditions: 72 h
NK-YS (IL-2 2.5 ng/mL) [7] = assay: as above; conditions: 72 h
NKL (IL-2 2.5 ng/mL) [8] = assay: as above; conditions: 72 h
SNK-6 (IL-2 2.5 ng/mL) [9] = assay: as above; conditions: 72 h
YT (IL-2 2.5 ng/mL) [10] = assay: as above; conditions: 72 h
[11] = tested on: normal primary NK cells, pool 1 (3 donors) (IL-2 2.5 ng/mL); assay: as above; conditions: 72 h
[12] = tested on: normal primary NK cells, pool 1 (3 donors), resting (IL-2 0 ng/mL); assay: as above; conditions: 72 h
[13] = tested on: normal primary NK cells, pool 2 (3 donors) (IL-2 2.5 ng/mL); assay: as above; conditions: 72 h
[14] = tested on: normal primary NK cells, pool 3 (3 donors) (IL-2 2.5 ng/mL); assay: as above; conditions: 72 h
[15] = tested on: normal NK cells expanded with K562-aAPC; assay: drug sensitivity score (DSS) (DSS units); higher = more sensitive; extreme values may be limits of the assay; conditions: 72 h; IL-2 2.5 ng/mL
Description: as §1

DERL-7 (IL-2 2.5 ng/mL) [16] = assay: as above; conditions: 72 h
IMC-1 (IL-2 20 ng/mL) [17] = assay: as above; conditions: 72 h
KAI3 (IL-2 2.5 ng/mL) [18] = assay: as above; conditions: 72 h
KHYG-1 (IL-2 2.5 ng/mL) [19] = assay: as above; conditions: 72 h
NK-92 (IL-2 2.5 ng/mL) [20] = assay: as above; conditions: 72 h
NK-YS (IL-2 2.5 ng/mL) [21] = assay: as above; conditions: 72 h
NKL (IL-2 2.5 ng/mL) [22] = assay: as above; conditions: 72 h
SNK-6 (IL-2 2.5 ng/mL) [23] = assay: as above; conditions: 72 h
YT (IL-2 2.5 ng/mL) [24] = assay: as above; conditions: 72 h
[25] = tested on: normal primary NK cells, pool 1 (3 donors) (IL-2 2.5 ng/mL); assay: as above; conditions: 72 h
[26] = tested on: normal primary NK cells, pool 1 (3 donors), resting (IL-2 0 ng/mL); assay: as above; conditions: 72 h
[27] = tested on: normal primary NK cells, pool 2 (3 donors) (IL-2 2.5 ng/mL); assay: as above; conditions: 72 h
[28] = tested on: normal primary NK cells, pool 3 (3 donors) (IL-2 2.5 ng/mL); assay: as above; conditions: 72 h

CN1CCN(c2cc(C(=O)Nc3ccc4c(c3)-c3c(c(C(N)=O)nn3-c3ccc(F)cc3)CC4)c(Cl)cn2)CC1 [PHA 408] (max concentration tested 10000 nM)
percent inhibition of viability [%]
Conditions | 1 nM | 10 nM | 100 nM | 1000 nM | 10000 nM
DERL-7 (IL-2 2.5 ng/mL) [2] | -1.3 | 0.79 | 2.16 | 31.9 | 101
IMC-1 (IL-2 20 ng/mL) [3] | -8.52 | -6.11 | -8.53 | 2.74 | 99.6
KAI3 (IL-2 2.5 ng/mL) [4] | -0.05 | 1.36 | 9.21 | 50.4 | 101
KHYG-1 (IL-2 2.5 ng/mL) [5] | -10.4 | -8.63 | -10.2 | -0.31 | 104
NK-92 (IL-2 2.5 ng/mL) [6] | -21 | -16.1 | -4.02 | 12.9 | 102
NK-YS (IL-2 2.5 ng/mL) [7] | -12.4 | -7.83 | -4.48 | 7.91 | 103
NKL (IL-2 2.5 ng/mL) [8] | -18.1 | -8.26 | -5.06 | 22.7 | 103
SNK-6 (IL-2 2.5 ng/mL) [9] | -17.6 | -11.2 | 0.21 | 22.9 | 100
YT (IL-2 2.5 ng/mL) [10] | -7.69 | -3.99 | -2.06 | 15.8 | 104
[1] | -8.15 | -10.8 | -1.64 | 16.7 | 101
[11] | -10.8 | -7.07 | 1.01 | 6.7 | 101
[12] | 18.8 | 21.2 | 14.8 | 12.5 | 100
[13] | 1.04 | -1.49 | 11.9 | 13 | 101
[14] | 1.98 | 1.33 | 13.2 | 4.36 | 101

Conditions | drug sensitivity score
DERL-7 (IL-2 2.5 ng/mL) [16] | 10.1
IMC-1 (IL-2 20 ng/mL) [17] | 5.9
KAI3 (IL-2 2.5 ng/mL) [18] | 11.6
KHYG-1 (IL-2 2.5 ng/mL) [19] | 5.88
NK-92 (IL-2 2.5 ng/mL) [20] | 7.75
NK-YS (IL-2 2.5 ng/mL) [21] | 6.95
NKL (IL-2 2.5 ng/mL) [22] | 9.11
SNK-6 (IL-2 2.5 ng/mL) [23] | 9.12
YT (IL-2 2.5 ng/mL) [24] | 8.22
[15] | 8.3
[25] | 6.64
[26] | 7.64
[27] | 7.73
[28] | 6.27

CC(=O)c1c(C)c2cnc(Nc3ccc(N4CCNCC4)cn3)nc2n(C2CCCC2)c1=O [Palbociclib] (max concentration tested 10000 nM)
percent inhibition of viability [%]
Conditions | 1 nM | 10 nM | 100 nM | 1000 nM | 10000 nM
DERL-7 (IL-2 2.5 ng/mL) [2] | -8.16 | 4.2 | 8.47 | 32.2 | 90.9
IMC-1 (IL-2 20 ng/mL) [3] | -2.52 | -7.06 | -2.86 | 6.43 | 101
KAI3 (IL-2 2.5 ng/mL) [4] | -3.55 | -10.6 | -0.36 | 0.62 | 57.6
KHYG-1 (IL-2 2.5 ng/mL) [5] | -0.2 | 2.78 | 14.7 | 81.5 | 91.9
NK-92 (IL-2 2.5 ng/mL) [6] | 6.01 | -5.34 | 15.5 | 12.9 | 65.7
NK-YS (IL-2 2.5 ng/mL) [7] | 2.65 | 4.48 | 17.3 | 37.1 | 61.5
NKL (IL-2 2.5 ng/mL) [8] | -10.3 | -8.16 | -14.5 | 25 | 104
SNK-6 (IL-2 2.5 ng/mL) [9] | 27.7 | 15.6 | 28.3 | 9.56 | 32.5
YT (IL-2 2.5 ng/mL) [10] | 2.18 | 0.66 | 6.83 | 31.3 | 37
[1] | 1.29 | 2.27 | 11 | 16.3 | 94.1
[11] | -11.6 | -7.3 | -7.79 | -6.34 | 74.7
[12] | 6.42 | -17.5 | -3.52 | -17 | 68.2
[13] | -10.6 | -5.61 | 1.26 | 2.75 | 66.1
[14] | -13.2 | -11.6 | 6.3 | -3.24 | 67

Conditions | drug sensitivity score
DERL-7 (IL-2 2.5 ng/mL) [16] | 8.89
IMC-1 (IL-2 20 ng/mL) [17] | 6.58
KAI3 (IL-2 2.5 ng/mL) [18] | 3.18
KHYG-1 (IL-2 2.5 ng/mL) [19] | 16.8
NK-92 (IL-2 2.5 ng/mL) [20] | 5.65
NK-YS (IL-2 2.5 ng/mL) [21] | 9.09
NKL (IL-2 2.5 ng/mL) [22] | 9.37
SNK-6 (IL-2 2.5 ng/mL) [23] | 0
YT (IL-2 2.5 ng/mL) [24] | 6.16
[15] | 7.9
[25] | 3.66
[26] | 2.9
[27] | 4
[28] | 3.41

Cc1[nH]c2ccccc2c1CCNCc1ccc(/C=C/C(=O)NO)cc1 [Panobinostat] (max concentration tested 1000 nM)
percent inhibition of viability [%]
Conditions | 0.1 nM | 1 nM | 10 nM | 100 nM | 1000 nM
DERL-7 (IL-2 2.5 ng/mL) [2] | -11.8 | -4.71 | 36.5 | 100 | 100
IMC-1 (IL-2 20 ng/mL) [3] | -2.07 | -6.63 | 2.44 | 100 | 100
KAI3 (IL-2 2.5 ng/mL) [4] | 4.1 | 14.2 | 61.8 | 101 | 101
KHYG-1 (IL-2 2.5 ng/mL) [5] | -7.12 | -8.38 | 22.6 | 101 | 101
NK-92 (IL-2 2.5 ng/mL) [6] | -5.27 | -2.71 | 34 | 98.1 | 101
NK-YS (IL-2 2.5 ng/mL) [7] | -8.83 | -9.94 | 19.8 | 97.1 | 98.8
NKL (IL-2 2.5 ng/mL) [8] | -1.46 | 1.8 | 61.1 | 101 | 100
SNK-6 (IL-2 2.5 ng/mL) [9] | -14.8 | 4.53 | 31.4 | 98.9 | 99.6
YT (IL-2 2.5 ng/mL) [10] | 0.21 | -1.12 | 12.8 | 101 | 98.4
[1] | 0.2 | 2.99 | 33.4 | 99.8 | 99.8
[11] | 0.27 | -4.7 | 33.9 | 97 | 97.5
[12] | -10.7 | 2.83 | 67 | 89.2 | 90.8
[13] | -7.26 | -4.93 | 64.8 | 94.5 | 94.9
[14] | -7.01 | -2.67 | 31.6 | 97.8 | 98.5

Conditions | drug sensitivity score
DERL-7 (IL-2 2.5 ng/mL) [16] | 23
IMC-1 (IL-2 20 ng/mL) [17] | 18.3
KAI3 (IL-2 2.5 ng/mL) [18] | 26
KHYG-1 (IL-2 2.5 ng/mL) [19] | 21.6
NK-92 (IL-2 2.5 ng/mL) [20] | 22.5
NK-YS (IL-2 2.5 ng/mL) [21] | 21
NKL (IL-2 2.5 ng/mL) [22] | 25.2
SNK-6 (IL-2 2.5 ng/mL) [23] | 22.1
YT (IL-2 2.5 ng/mL) [24] | 20.1
[15] | 22.6
[25] | 22.3
[26] | 24.6
[27] | 24.6
[28] | 22.3
